Source: US4847375A, “Antibacterial 1,8-bridged 4-quinoline-3-carboxylic acids” (Bayer Aktiengesellschaft, priority 1985, dated 1989)
Converted amounts (≈) assume the structure as drawn.

Legend:
Assay in all cases: MIC, agar dilution test
Type in all cases: cell-based
Klebsiella 8085 = details: Isosensitest medium, Denley multipoint inoculator
From the text: (§1) Agar dilution test (Isosensitest medium); Denley multi-

E. coli A 261 = details: Escherichia coli, A261, Isosensitest medium, Denley multipoint inoculator
From the text: as §1

E. coli Neumann = details: Escherichia coli, Isosensitest medium, Denley multipoint inoculator
From the text: as §1

E. coli T 7 = details: Escherichia coli, T7, Isosensitest medium, Denley multipoint inoculator
From the text: as §1

SMILES | MIC (Klebsiella 8085) [µg/mL] | MIC (E. coli A 261) [µg/mL] | MIC (E. coli Neumann) [µg/mL] | MIC (E. coli T 7) [µg/mL]
CN1CCN(c2c(F)cc3c(=O)c(C(=O)O)cn4c3c2OC2CCCC24)CC1 (centres unmarked) [Example 3] | 2 (≈ 5.16 µM) | 2 (≈ 5.16 µM) | 2 (≈ 5.16 µM) | 2 (≈ 5.16 µM)
CC1(C)COc2c(N3CCNCC3)c(F)cc3c(=O)c(C(=O)O)cn1c23 [Example 7] | 0.25 (≈ 0.692 µM) | 0.125 (≈ 0.346 µM) | 1 (≈ 2.77 µM) | 0.5 (≈ 1.38 µM)
